Results on 18 compounds are retold here after ChEMBL document CHEMBL1146007, “Binding of sulfonyl-containing arylalkylamines at human 5-HT6 serotonin receptors” (J Med Chem, 2006).

By Ki is commonly meant a measure of affinity in units of concentration, obtained from inhibition or displacement. A lower Ki goes with tighter binding.

Each structure is given as a SMILES string.

The experiment deals with 5-hydroxytryptamine receptor 6 (Homo sapiens, UniProt P50406). In words: Binding affinity to human 5HT6 receptor in HEK293 cells by radioligand binding assay. It is filed as cell-based.
Chain of 5-hydroxytryptamine receptor 6 (P50406 whole entry): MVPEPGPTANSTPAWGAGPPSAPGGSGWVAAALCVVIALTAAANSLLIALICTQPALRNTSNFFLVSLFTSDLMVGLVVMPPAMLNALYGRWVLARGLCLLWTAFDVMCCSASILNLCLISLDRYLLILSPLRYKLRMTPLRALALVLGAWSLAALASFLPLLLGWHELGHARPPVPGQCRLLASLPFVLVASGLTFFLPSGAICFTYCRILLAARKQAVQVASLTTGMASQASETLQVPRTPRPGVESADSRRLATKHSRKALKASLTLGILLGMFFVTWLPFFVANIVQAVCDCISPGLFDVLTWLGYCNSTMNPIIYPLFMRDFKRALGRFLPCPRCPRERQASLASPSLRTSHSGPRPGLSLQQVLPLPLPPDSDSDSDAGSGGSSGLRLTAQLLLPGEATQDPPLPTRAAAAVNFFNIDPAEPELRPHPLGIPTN
Regarding `O=S(=O)(c1ccccc1)c1ccc(N2CCNCC2)cc1`, the affinity corresponds to a Ki of 6.9 nM.
`NCCCc1cccc(NS(=O)(=O)c2ccccc2)c1` displayed a Ki of 230 nM.
The compound `NCCc1ccc(S(=O)(=O)c2ccccc2)cc1` gave a Ki of 37 nM.
As to `O=S(=O)(Nc1cccc(N2CCNCC2)c1)c1ccccc1`, the Ki stood at 62 nM.
Consider `O=S(=O)(c1ccccc1)c1cccc(N2CCNCC2)c1`, for which the Ki worked out at 1.2 nM.
`NCc1cccc(NS(=O)(=O)c2ccccc2)c1` registered a Ki of 290 nM.
With `NCCc1cccc(S(=O)(=O)c2ccccc2)c1` the figure was 50 nM.
`NCCc1cccc(Sc2ccccc2)c1`: affinity was put at a Ki of 115 nM.
On to `Nc1cccc(NS(=O)(=O)c2ccccc2)c1`, for which the Ki amounted to 2840 nM.
In turn, `CNCCc1cccc(NS(=O)(=O)c2ccccc2)c1` yielded a Ki of 38 nM.
Compound `CN(C)CCc1cccc(NS(=O)(=O)c2ccccc2)c1` yielded a Ki of 52 nM.
For `NCCc1cccc(S(=O)(=O)Nc2ccccc2)c1`, affinity was put at a Ki of 70 nM.
As for `O=S(=O)(Nc1ccc(N2CCNCC2)cc1)c1ccccc1`, the Ki worked out at 85 nM.
In turn, `NCCc1cccc(NS(=O)(=O)c2ccccc2)c1` came in with a Ki of 21 nM.
Take `NCCc1ccc(NS(=O)(=O)c2ccccc2)cc1`: the affinity, expressed as Ki, was 38 nM.
In the case of `O=S(=O)(c1ccccc1)c1ccccc1N1CCNCC1`, the affinity corresponds to a Ki of 4000 nM.
Compound `COc1ccc(NS(=O)(=O)c2ccccc2)cc1CCN` returned a Ki of 17 nM.
`CN(C)CCc1ccn(S(=O)(=O)c2ccccc2)c1`: the affinity, expressed as Ki, was 15 nM.
